Measured values: PubChem BioAssay (NCI)
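Dose response: 5 concentrations. Exposure: 48 h. Format: 96-well plates. Endpoint: linear interpolation; highest concentration if not reached. GI50 is the concentration that inhibits growth by half. TGI is the concentration that stops growth completely.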

Tests used:
Assay in all cases: growth of human tumour cells (NCI), 48 h
IGROV1 ovarian = system: IGROV1 ovarian
SK-MEL-5 melanoma = system: SK-MEL-5 melanoma
HOP-62 NSCLC = system: HOP-62 NSCLC
SR leukemia = system: SR leukemia
MDA-MB-231 breast = system: MDA-MB-231 breast
NCI-H522 lung = system: NCI-H522 lung
HCT-15 colon = system: HCT-15 colon
NCI-H226 lung = system: NCI-H226 lung
DU-145 prostate = system: DU-145 prostate
COLO 205 colon = system: COLO 205 colon

Compound | GI50 (IGROV1 ovarian) | TGI (IGROV1 ovarian) | GI50 (SK-MEL-5 melanoma) | TGI (SK-MEL-5 melanoma) | GI50 (HOP-62 NSCLC) | TGI (HOP-62 NSCLC) | GI50 (SR leukemia) | TGI (SR leukemia) | GI50 (MDA-MB-231 breast) | TGI (MDA-MB-231 breast) | GI50 (NCI-H522 lung) | TGI (NCI-H522 lung) | GI50 (HCT-15 colon) | TGI (HCT-15 colon) | GI50 (NCI-H226 lung) | TGI (NCI-H226 lung) | GI50 (DU-145 prostate) | TGI (DU-145 prostate) | GI50 (COLO 205 colon) | TGI (COLO 205 colon)
CCCCOc1ccc(/C=N/Nc2cc(C)nc3ccc(Cl)cc23)cc1 | 1.93 µM | 3.63 µM | 1.61 µM | 2.97 µM | 1.62 µM | 3.28 µM | 0.501 µM | 3.13 µM | 1.74 µM | 3.25 µM | 1.72 µM | 3.29 µM | 1.35 µM | 2.74 µM | 1.63 µM | 3.41 µM | 1.82 µM | 3.71 µM | 2.01 µM | 4.03 µM
COc1cc([C@@H]2c3cc4c(cc3C[C@H]3COC(=O)[C@@H]32)OCO4)cc2c1OCO2 | – | 0.048 µM | – | < 0.01 µM | – | > 82 µM | – | < 0.01 µM | – | < 0.0224 µM | – | > 100 µM | – | > 100 µM | – | < 0.01 µM | – | > 100 µM | – | 0.0149 µM
O=C(CCl)Nc1cc(O)c2c(c1)C(=O)c1cccc(O)c1C2=O | 0.942 µM | 3.13 µM | 0.549 µM | 1.61 µM | 1.71 µM | 3.38 µM | 0.346 µM | 2.86 µM | 1.91 µM | 5.88 µM | 0.172 µM | 0.384 µM | 0.62 µM | 2.01 µM | 1.31 µM | 4.93 µM | 1.56 µM | 2.94 µM | 1.55 µM | 3.35 µM
O=S(=O)(O)ONC1=NCCN1 | > 100 µM | > 100 µM | > 100 µM | > 100 µM | > 100 µM | > 100 µM | > 100 µM | > 100 µM | > 100 µM | > 100 µM | > 100 µM | > 100 µM | > 100 µM | > 100 µM | > 100 µM | > 100 µM | > 100 µM | > 100 µM | > 100 µM | > 100 µM
